Key:
[1] = tested on: mitochondrial DNA (mtDNA) prepared from MM.1S cells; assay: Direct DNA damage, PCR amplification with mtDNA primers; format: biochemical, human; conditions: 0.25 μM compound, 30 minutes at 37° C.
Protocol: (§1) Method: DNA was prepared from MM.1S cells by QIAGEN genomic tip 20/G according to protocol described in Furda et al., Methods Mol Biol, 2012. 1 μg of DNA was treated with 0.25 μM compound for 30 minutes at 37° C. DMSO was used as control treatment. 20 ng of the treated DNA was PCR amplified using Phusion Hot Start II High Fidelity PCR Master Mix (Thermo Scientific) and primers directed to either HPRT or primers directed to mitochondrial DNA (mtDNA) was used, generating 10.4 or 8.9 kb fragments, respectively. The PCR reactions were separated on a 1% agarose gel and visualized by ChemiDoc™ MP Imaging System (BioRad). Example compounds 1, 2 and 38 were investigated, as were compounds 18 and 20, which are metabolites of compound 1. They were compared with bendamustine, melphalan and DMSO control. The results for compounds 1, 2, 18 and 20 with the HPRT primers are shown in FIG. 4(A); the results with the mtDNA primers are shown in FIG. 4(B).

[2] = tested on: nuclear DNA (HPRT) prepared from MM.1S cells; assay: Direct DNA damage, PCR amplification with HPRT primers; format: biochemical, human; conditions: 0.25 μM compound, 30 minutes at 37° C.
Protocol: as §1

MM.1S cells [3] = assay: Cellular retention/efflux: intracellular and extracellular concentrations by LC-MS/MS; format: in vitro ADME, human; conditions: MM.1S cells, 5, 15 and 60 min; metabolites measured after treatment with the parent Example compound
Protocol: Methods: MM.1S cells at 2×10^6 cells/mL were seeded at 250 μL per well in a 96-well plate. Cells were incubated in the presence of a test compound for 5, 15, and 60 min before pelleting cells by centrifugation at +4° C. for 5 min. Cell media was immediately harvested to a second plate and stored at −80° C. until further analysis. Pelleted cells were washed once with ice cold PBS before storage at −80° C. until further analysis.
Cells were lysed and protein in the media were precipitated using acetonitrile dimethylformamide, 9:1 containing internal standard. Samples were centrifuged and the supernatant was analyzed with LC-MS/MS (ACQUITY UPLC-Xevo TQ-S micro) to determine compound concentration.
Example compound 1, bendamustine and melphalan were used as test compounds.
Method: Method described in Biological example 3.
Example compounds 1, 2, 3, 4, 6, 7 and 10 were investigated. Intracellular metabolites are formed from all compounds tested. The compound used for cell treatment was metabolised to the ester-hydrolysed compound (here called Metabolite A) and to the amide-hydrolysed compound (called Metabolite B). The example compound structures and the structures of the two metabolites for the respective compounds were as shown in Table 4. The Metabolites B formed under the conditions tested were compounds with structure as Examples 17 and 18: […]

[4] = tested on: hPBMC (Human Peripheral blood mononuclear cells); assay: In vitro cytotoxicity (CellTiter-Glo, 72 h) in hPBMC; format: cell-based; conditions: stimulated with PHA-M and IL-2
Protocol: (§2) All cells were cultivated in RPMI medium 1640 (IX). All media was supplemented with […] penicillin/streptomycin, 10% heat inactivated FBS, 0.1 mM Sodium Pyruvate, 1×MEM NEAA (ThermoFisher) and 1 mM HEPES. The DERL-2 cells had higher FBS (20%) and 40 ng/mL IL-2 was added. hPBMCs were thawed and allowed to acclimatise overnight and then stimulated with 10 µg/mL PHA-M and 40 ng/mL IL-2 for 4 hours before being exposed to test compounds. All cells, except for hPBMCs, were grown to reach log phase before being exposed to the test compounds.
(§3) Test compounds were dissolved in 100% DMSO and added to a 384 assay plate. Additional DMSO was added to maintain the same final DMSO concentration (0.2%) in all wells. 25 μL cell suspension with a concentration of 100000 cells/mL was added to each well. The cells were cultured in a CO2 incubator at 37° C. for 72 h. Plates were equilibrated to room temperature for 30 minutes before adding 20 μL CellTiter-Glo® 2.0 (Promega) reagent to all wells. The plate was then allowed to stabilize for 20 minutes before recording the luminescence (Em filter 700 nm) in an Envision plate reader.

[5] = tested on: BJ Fibroblasts (normal cells); assay: In vitro cytotoxicity (CellTiter-Glo, 72 h) in BJ fibroblasts; format: cell-based, human
Protocol: as §2, §3

MM.1S cells [6] = assay: DNA fragmentation, APO-BrdU TUNEL assay by FACS; format: cell-based, human
Protocol: Method: 1×10^6 MM.1S cells (CRL-2974, ATCC) were treated with Example compound 1 or Bendamustine at 0.006, 0.06, 0.6 or 6 μM for 24 h. After incubation, the cells were washed with PBS (10010-015, Gibco), fixed in Flow Cytometry Fixation Buffer (FC004, R&D Systems) for 10 min and stored in 70% ethanol at −20° C. overnight. The deoxythymidine analog (BrdUTP) was present in the experiment and served to label the DNA break sites. Next day, the cells were washed and stained using an APO-BrdU™ TUNEL Assay Kit, according to the manufacturer's protocol (A23210, Invitrogen), followed by the analysis using BD FACSCanto™ II. The percentage ofTUNEL positive cells indicates the percentage of cells with fragmented DNA.

| SMILES | DNA damage on mitochondrial DNA (8.9 kb PCR band) [1] | DNA damage on nuclear DNA (HPRT 10.4 kb PCR band) [2] | extracellular concentration (media) (MM.1S cells [3]) | intracellular concentration (MM.1S cells [3]) | IC50 [5] | further results |
| --- | --- | --- | --- | --- | --- | --- |
| CCOC(=O)[C@@H](N)CCc1nc2cc(N(CCCl)CCCl)ccc2n1C.Cl.Cl [Example compound 38, Ethyl (2S)-2-amino-4-[5-[bis(2-chloroethyl)amino]-1-methyl-benzimidazol-2-yl]butanoate] | effectively damaged | effectively damaged | – | – | – | – |
| Cl.Cl.Cn1c(CC[C@H](N)C(=O)O)nc2cc(N(CCCl)CCCl)ccc21 [Example compound 18, (S)-2-amino-4-(5-(bis(2-chloroethyl)amino)-1-methyl-1H-benzo[d]imidazol-2-yl)butanoic acid] | effectively damaged | effectively damaged | low levels of it are found in the media outside the cells | rapidly formed inside the cells | – | – |
| CCOC(=O)[C@H](Cc1ccc(F)cc1)NC(=O)[C@@H](N)CCc1nc2cc(N(CCCl)CCCl)ccc2n1C [Example compound 2, Ethyl (2S)-2-[[(2S)-2-amino-4-[5-[bis(2-chloroethyl)amino]-1-methyl-benzimidazol-2-yl]butanoyl]amino]-3-(4-fluorophenyl)propanoate] | strong DNA damaging effect | strong DNA damaging effect | – | – | – | IC50 [4]: 7.5 nM |
| CCOC(=O)[C@H](CC(C)C)NC(=O)[C@@H](N)CCc1nc2cc(N(CCCl)CCCl)ccc2n1-c1ccccc1 [Example compound 13, Ethyl (2S)-2-[[(2S)-2-amino-4-[5-[bis(2-chloroethyl)amino]-1-phenyl-benzimidazol-2-yl]butanoyl]amino]-4-methyl-pentanoate] | – | – | – | – | > 2000 nM | – |
| CC(C)C[C@H](NC(=O)[C@@H](N)CCc1nc2cc(N(CCCl)CCCl)ccc2n1C)C(=O)N(C)C [Example compound 30, (2S)-2-[[(2S)-2-Amino-4-[5-[bis(2-chloroethyl)amino]-1-methyl-benzimidazol-2-yl]butanoyl]amino]-N,N,4-trimethyl-pentanamide] | – | – | – | – | > 2000 nM | – |
| N[C@@H](Cc1ccc(N(CCCl)CCCl)cc1)C(=O)O [Melphalan, reference compound] | no or very minor effect on DNA damage | no or very minor effect on DNA damage | high and constant throughout the experiment | low intracellular concentration | – | – |
| CC(C)C[C@H](NC(=O)[C@@H](N)CCc1nc2cc(N(CCCl)CCCl)ccc2n1C)C(=O)O [Example compound 20, (2S)-2-[[(2S)-2-amino-4-[5-[bis(2-chloroethyl)amino]-1-methyl-benzimidazol-2-yl]butanoyl]amino]-4-methyl-pentanoic acid] | DNA damaging effect but to a lesser degree compared to Example compounds 1, 2 and 18, but greater than Bendamustine or Melphalan | DNA damaging effect but to a lesser degree compared to Example compounds 1, 2 and 18, but greater than Bendamustine or Melphalan | – | – | – | – |
| Cn1c(CCCC(=O)O)nc2cc(N(CCCl)CCCl)ccc21 [Bendamustine, reference compound] | no or very minor effect on DNA damage | no or very minor effect on DNA damage | quite high and decreased over time | Low intracellular concentrations could be detected of bendamustine and the level decreases over time | – | cells with DNA breaks (MM.1S cells [6]; 0.6 μM for 24 h): not the case; dose response effect on DNA damage (TUNEL positive cells) (MM.1S cells [6]; 0.006, 0.06, 0.6 or 6 μM for 24 h): no obvious effect |
| CCOC(=O)[C@H](Cc1nc2cc(N(CCCl)CCCl)ccc2n1C)NC(=O)[C@@H](N)CC(C)C [Example compound 10, Ethyl (2S)-2-[[(2S)-2-amino-4-methyl-pentanoyl]amino]-3-[5-[bis(2-chloroethyl)amino]-1-methyl-benzimidazol-2-yl]propanoate] | – | – | – | – | – | IC50 [4]: 26.4 nM |
| CCOC(=O)[C@H](Cc1ccc(F)cc1)NC(=O)[C@H](CCc1nc2cc(N(CCCl)CCCl)ccc2n1C)NC(C)=O [Example compound 34, Ethyl (2S)-2-[[(2S)-2-acetamido-4-[5-[bis(2-chloroethyl)amino]-1-methyl-benzimidazol-2-yl]butanoyl]amino]-3-(4-fluorophenyl)propanoate] | – | – | – | – | > 2000 nM | – |
